Legend:
[1] = xn = mol fraction of the nth substance listed; settings: for surface tension liquid-gas: Capillary rise; for viscosity / mass density: Liquid; for viscosity: Falling or rolling sphere viscometry; for mass density: Vibrating tube method
[2] = refractive index (Na D-line) (dimensionless); xn = mol fraction of the nth substance listed; settings: Liquid, Standard Abbe refractometry
[3] = for surface tension liquid-gas: Capillary rise; for viscosity / mass density: Liquid; for viscosity: Falling or rolling sphere viscometry; for mass density: Vibrating tube method
[4] = refractive index (Na D-line) (dimensionless); settings: 101.33 kPa, Liquid, Standard Abbe refractometry

CCO [ethanol] + CC(=O)OCc1ccccc1
[1], x1 = 1
Settings	surface tension liquid-gas [mN/m]
293.15 K	22.3
303.15 K	21.4
313.15 K	20.6
323.15 K	19.4

100.8 kPa, x1 = 1
Settings	mass density, [1] [kg/m3]	refractive index, [2]	viscosity, [1] [mPa·s]
293.15 K	789.1	1.36137	1.183
303.15 K	780.76	1.35712	0.98
313.15 K	771.99	1.35292	0.822
323.15 K	763.03	1.34873	0.698

OCc1ccccc1 [benzenemethanol]
Settings	refractive index, 293.15 K	refractive index, 303.15 K	refractive index, 313.15 K	refractive index, 323.15 K	surface tension liquid-gas, 293.15 K [mN/m]	surface tension liquid-gas, 303.15 K [mN/m]	surface tension liquid-gas, 313.15 K [mN/m]	surface tension liquid-gas, 323.15 K [mN/m]
[3]	–	–	–	–	39.2	38.1	37.2	36.3
[4]	1.54049	1.53635	1.53215	1.52796	–	–	–	–

[3]
Settings	mass density, 293.15 K [kg/m3]	mass density, 303.15 K [kg/m3]	mass density, 313.15 K [kg/m3]	mass density, 323.15 K [kg/m3]	viscosity, 293.15 K [mPa·s]	viscosity, 303.15 K [mPa·s]	viscosity, 313.15 K [mPa·s]	viscosity, 323.15 K [mPa·s]
100.8 kPa	1045.44	1037.45	1029.61	1021.5	6.287	4.579	3.335	2.545
101 kPa	1045.44	1037.45	1029.61	1021.5	6.287	4.579	3.335	2.545

OCc1ccccc1 [benzenemethanol] + CC(=O)OCc1ccccc1
[1], x2 = 0
Settings	surface tension liquid-gas [mN/m]
293.15 K	39.2
303.15 K	38.1
313.15 K	37.2
323.15 K	36.3

101 kPa, x2 = 0
Settings	mass density, [1] [kg/m3]	refractive index, [2]	viscosity, [1] [mPa·s]
293.15 K	1045.44	1.54049	6.287
303.15 K	1037.45	1.53635	4.579
313.15 K	1029.61	1.53215	3.335
323.15 K	1021.5	1.52796	2.545

CCO [ethanol] + OCc1ccccc1
[1], x1 = 1
Settings	surface tension liquid-gas [mN/m]
293.15 K	22.3
303.15 K	21.4
313.15 K	20.6
323.15 K	19.4

100.8 kPa, x1 = 1
Settings	mass density, [1] [kg/m3]	refractive index, [2]	viscosity, [1] [mPa·s]
293.15 K	789.1	1.36137	1.183
303.15 K	780.76	1.35712	0.98
313.15 K	771.99	1.35292	0.822
323.15 K	763.03	1.34873	0.698

CCO [ethanol]
Settings	refractive index, 293.15 K	refractive index, 303.15 K	refractive index, 313.15 K	refractive index, 323.15 K	surface tension liquid-gas, 293.15 K [mN/m]	surface tension liquid-gas, 303.15 K [mN/m]	surface tension liquid-gas, 313.15 K [mN/m]	surface tension liquid-gas, 323.15 K [mN/m]
[3]	–	–	–	–	22.3	21.4	20.6	19.4
[4]	1.36137	1.35712	1.35292	1.34873	–	–	–	–

[3], 100.8 kPa
Settings	mass density [kg/m3]	viscosity [mPa·s]
293.15 K	789.1	1.183
303.15 K	780.76	0.98
313.15 K	771.99	0.822
323.15 K	763.03	0.698

CC(=O)OCc1ccccc1 [benzyl ethanoate]
Settings	refractive index, 293.15 K	refractive index, 303.15 K	refractive index, 313.15 K	refractive index, 323.15 K	surface tension liquid-gas, 293.15 K [mN/m]	surface tension liquid-gas, 303.15 K [mN/m]	surface tension liquid-gas, 313.15 K [mN/m]	surface tension liquid-gas, 323.15 K [mN/m]
[3]	–	–	–	–	37.3	35.6	34.3	33.2
[4]	1.50245	1.49776	1.49309	1.48834	–	–	–	–

[3]
Settings	mass density, 293.15 K [kg/m3]	mass density, 303.15 K [kg/m3]	mass density, 313.15 K [kg/m3]	mass density, 323.15 K [kg/m3]	viscosity, 293.15 K [mPa·s]	viscosity, 303.15 K [mPa·s]	viscosity, 313.15 K [mPa·s]	viscosity, 323.15 K [mPa·s]
100.8 kPa	1055.81	1046.74	1037.42	1027.51	2.324	1.836	1.474	1.256
101 kPa	1055.81	1046.74	1037.42	1027.51	2.324	1.836	1.474	1.256
